Experimental data: patent publication EP0084597A1, “Triazole and imidazole derivatives and pharmaceutical preparations containing them” (BAYER AG, priority 1981, dated 1983)
Values after ≈ are worked out from the molar mass of the structure shown.

Experiments:
Trichophyton mentagr. = assay: Antimycotic in-vitro activity, serial dilution test (MIC); type: cell-based, Trichophyton mentagrophytes; conditions: Sabouraud medium, 20°C, 96 hours, inoculum 5 x 10^4 germs/ml; for MIC: Trichophyton, read-out: MHK-Werte in γ/ml Nährmedium, Trichophyton mentagr.
Procedure: (§1) Die in-vitro-Prüfungen wurden im Reihenverdünnungstest mit Keiminokula von durchschnittlich 5 x 10^4 Keimen/ml Substrat durchgeführt. Als Nährmedium dienten • a) für Dermatophyten und Schimmelpilze: Sabourand's milieu d'epreuve • b) für Hefen: Fleischextrakt-Traubenzucker-Bouillon.
(§2) Die Bebrütungstemperatur betrug 20°C, die Bebrütungsdauer lag bei 24 bis 96 Stunden bei Hefen und 96 Stunden bei Dermatophyten und Schimmelpilzen.

Candida albicans = assay: as above; type: cell-based; conditions: meat extract-glucose broth, 20°C, 24 to 96 hours, inoculum 5 x 10^4 germs/ml; for MIC: Candida albicans, read-out: MHK-Werte in γ/ml Nährmedium, Candida albicans
Procedure: as §1, §2

Microsporum canis = assay: as above; type: cell-based; conditions: Sabouraud medium, 20°C, inoculum 5 x 10^4 germs/ml; for MIC: Microsporum canis, 96 h, read-out: MHK-Werte in γ/ml Nährmedium, Microsporum canis
Procedure: as §1, §2

Torulopsis glabrata = assay: as above; type: cell-based; conditions: meat extract-glucose broth, 20°C, 24 to 96 hours, inoculum 5 x 10^4 germs/ml; for MIC: Nakaseomyces glabratus, read-out: MHK-Werte in γ/ml Nährmedium, Torulopsis glabrata
Procedure: as §1, §2

Aspergillus fumig. = assay: as above; type: cell-based, Aspergillus fumigatus; conditions: Sabouraud medium, 20°C, inoculum 5 x 10^4 germs/ml; for MIC: Aspergillus, 96 h, read-out: MHK-Werte in γ/ml Nährmedium, Aspergillus fumig.
Procedure: as §1, §2

[1] = test system: Dermatophyten und Schimmelpilze, Hefen; assay: Antimycotic in-vitro activity, serial dilution test, overall comparison with known compounds; type: cell-based; conditions: compared with known compounds (A),(B),(C) and (D)
Procedure: as §1, §2

Candida-Zellen = assay: Antimycotic in-vivo activity (oral) in mouse candidosis; set-up: species or system Mäuse vom Typ SPF-CF1; key: +++++: sehr gute Wirkung = 90 % Ueberlebende am 6.Tag p.i.; ++++: gute Wirkung = 80 % Ueberlebende am 6.Tag p.i.; +++: Wirkung = 60 % Ueberlebende am 6.Tag p.i.; ++: schwache Wirkung = 40 % Ueberlebende am 6.Tag p.i.; +: Spur Wirkung; k.W.: keine Wirkung
Procedure: Mäuse vom Typ SPF-CF1 wurden intravenös mit 1 - 2 x 10^6 logarithmisch wachsenden Candida-Zellen, die in physiologischer Kochsalzlösung suspendiert werden, infiziert. Eine Stunde vor und sieben Stunden nach der Infektion werden die Tiere mit jeweils 50 - 100 mg/kg Körpergewicht der Präparate oral behandelt.
Uhbehandelte Tiere starben 3 bis 6 Tage post infektionem. Die Ueberlebensrate am 6.Tag post infektionem betrug bei uhbehandelten Kontrolltieren etwa 5 %.
• +++++ = sehr gute Wirkung = 90 % Ueberlebende am 6.Tag p.i. • ++++ = gute Wirkung = 80 % Ueberlebende am 6.Tag p.i. • +++ = Wirkung = 60 % Ueberlebende am 6.Tag p.i. • ++ = schwache Wirkung = 40 % Ueberlebende am 6.Tag p.i. • + = Spur Wirkung = k.W. = keine Wirkung

[2] = mice infected i.v. with 1 - 2 x 10^6 Candida cells, oral 50 - 100 mg/kg one hour before and seven hours after infection, survivors on day 6 p.i.
[3] = mouse candidosis, oral, compared with known compounds (A), (B), (C) and (D)

Compound	MHK-Werte in γ/ml Nährmedium, Trichophyton mentagr. (Trichophyton mentagr.) [µg/mL]	MHK-Werte in γ/ml Nährmedium, Candida albicans (Candida albicans) [µg/mL]	MHK-Werte in γ/ml Nährmedium, Microsporum canis (Microsporum canis; 96 hours) [µg/mL]	MHK-Werte in γ/ml Nährmedium, Torulopsis glabrata (Torulopsis glabrata) [µg/mL]	MHK-Werte in γ/ml Nährmedium, Aspergillus fumig. (Aspergillus fumig.; 96 hours) [µg/mL]	antimykotische Wirkung [1]	MIC (Trichophyton mentagr.) [µg/mL]	MIC (Candida albicans) [µg/mL]	Wirkung (Candida-Zellen; [2])	MIC (Microsporum canis) [µg/mL]	MIC (Aspergillus fumig.) [µg/mL]	MIC (Torulopsis glabrata) [µg/mL]	Wirkung (Candida-Zellen; [3])
CCCCC(C(O)c1ccc(Oc2ccc(Cl)cc2)cc1)n1cncn1 (single isomer, unassigned) [Beispiel 34]	<1	<1	32	>64	32	bessere antimykotische Wirkung	–	–	–	–	–	–	–
CC(C(=O)c1ccccc1)n1cncn1 (centres unmarked) [(A), reference compound]	–	–	–	–	–	–	> 64	> 64	k.W.	–	–	–	–
O=C(Cn1cncn1)c1ccc(-c2ccccc2)cc1 [(B), reference compound]	–	–	–	–	–	–	4 (≈ 15.2 µM)	> 64	k.W.	> 64	> 64	–	–
CC(C(O)c1ccc(Cl)cc1)n1cncn1 (centres unmarked) [(C), reference compound]	–	–	–	–	–	–	> 64	> 64	k.W.	–	–	–	–
OC(Cn1cncn1)c1ccc(-c2ccc(Cl)cc2)cc1 (centres unmarked) [(D), reference compound]	–	–	–	–	–	–	4 (≈ 13.3 µM)	> 64	k.W.	> 64	> 64	–	–
CCC(C(=O)c1ccc(Oc2ccc(Cl)cc2)cc1)n1cncn1 (centres unmarked) [Beispiel 7]	–	–	–	–	–	bessere antimykotische Wirkung	4 (≈ 11.7 µM)	16 (≈ 46.8 µM)	–	2 (≈ 5.85 µM)	32 (≈ 93.6 µM)	64 (≈ 187 µM)	–
CC(C)C(C(=O)c1ccc(Oc2ccc(Cl)cc2)cc1)n1cncn1 (centres unmarked) [Beispiel 13]	–	–	–	–	–	bessere antimykotische Wirkung	4 (≈ 11.2 µM)	64 (≈ 180 µM)	–	8 (≈ 22.5 µM)	8 (≈ 22.5 µM)	–	–
CCCC(C(=O)c1ccc(Oc2ccc(Cl)cc2)cc1)n1ccnc1 (centres unmarked) [Beispiel 25]	–	–	–	–	–	bessere antimykotische Wirkung	< 1	< 1	–	8 (≈ 22.5 µM)	< 1	< 1	–
CC(C(=O)c1ccc(Oc2ccc(Cl)cc2)cc1)n1ccnc1 (centres unmarked) [Beispiel 26]	–	–	–	–	–	bessere antimykotische Wirkung	8 (≈ 24.5 µM)	4 (≈ 12.2 µM)	+	–	16 (≈ 49 µM)	16 (≈ 49 µM)	bessere Wirkung
CCCCC(C(=O)c1ccc(Oc2ccc(Cl)cc2)cc1)n1ccnc1 (centres unmarked) [Beispiel 27]	–	–	–	–	–	bessere antimykotische Wirkung	< 1	< 1	–	< 1	< 1	< 1	–
CC(C)C(C(=O)c1ccc(Oc2ccc(Cl)cc2)cc1)n1ccnc1 (centres unmarked) [Beispiel 28]	–	–	–	–	–	bessere antimykotische Wirkung	< 1	< 1	–	2 (≈ 5.64 µM)	< 1	2 (≈ 5.64 µM)	–
CCCCCCCC(C(O)c1ccc(Oc2ccc(Cl)cc2)cc1)n1cncn1 (centres unmarked) [Beispiel 36]	–	–	–	–	–	bessere antimykotische Wirkung	< 1	4 (≈ 9.66 µM)	–	32 (≈ 77.3 µM)	64 (≈ 155 µM)	16 (≈ 38.7 µM)	–
CC=CCC(C(O)c1ccc(Oc2ccc(Cl)cc2)cc1)n1cncn1 (centres unmarked) [Beispiel 37]	–	–	–	–	–	bessere antimykotische Wirkung	4 (≈ 10.8 µM)	< 1	–	4 (≈ 10.8 µM)	32 (≈ 86.5 µM)	2 (≈ 5.41 µM)	–
CCCC=CC(C(O)c1ccc(Oc2ccc(Cl)cc2)cc1)n1cncn1 (centres unmarked) [Beispiel 38]	–	–	–	–	–	bessere antimykotische Wirkung	< 1	8 (≈ 20.8 µM)	–	8 (≈ 20.8 µM)	32 (≈ 83.4 µM)	64 (≈ 167 µM)	–
COCCC(C(O)c1ccc(Oc2ccc(Cl)cc2)cc1)n1cncn1 (centres unmarked) [Beispiel 39]	–	–	–	–	–	bessere antimykotische Wirkung	4 (≈ 10.7 µM)	< 1	–	16 (≈ 42.8 µM)	16 (≈ 42.8 µM)	4 (≈ 10.7 µM)	–
CCCC(C(O)c1ccc(Oc2ccc(Cl)cc2Cl)cc1)n1cncn1 (centres unmarked) [Beispiel 40]	–	–	–	–	–	bessere antimykotische Wirkung	< 1	< 1	–	8 (≈ 20.4 µM)	> 64	< 1	–
CC(C(O)c1ccc(Oc2ccc(Cl)cc2Cl)cc1)n1cncn1 (centres unmarked) [Beispiel 41]	–	–	–	–	–	bessere antimykotische Wirkung	4 (≈ 11 µM)	< 1	–	16 (≈ 43.9 µM)	32 (≈ 87.9 µM)	8 (≈ 22 µM)	–
CC(n1cncn1)C(C)(O)c1ccc(Oc2ccc(Cl)cc2)cc1 (centres unmarked) [Beispiel 44]	–	–	–	–	–	bessere antimykotische Wirkung	< 1	< 1	–	32 (≈ 93.1 µM)	> 64	> 64	–
OC(Cn1cncn1)c1ccc(Oc2ccc(Cl)cc2Cl)cc1 (centres unmarked) [Beispiel 48]	–	–	–	–	–	bessere antimykotische Wirkung	< 1	< 1	–	4 (≈ 11.4 µM)	16 (≈ 45.7 µM)	2 (≈ 5.71 µM)	–
OC(Cn1cncn1)c1ccc(Oc2ccc(Cl)cc2)cc1 (centres unmarked) [Beispiel 49]	–	–	–	–	–	bessere antimykotische Wirkung	< 1	< 1	–	4 (≈ 12.7 µM)	16 (≈ 50.7 µM)	16 (≈ 50.7 µM)	–
CCCC(C(O)c1ccc(Oc2ccccc2)cc1)n1ccnc1 (centres unmarked) [Beispiel 68]	–	–	–	–	–	bessere antimykotische Wirkung	4 (≈ 12.4 µM)	< 1	–	16 (≈ 49.6 µM)	32 (≈ 99.3 µM)	32 (≈ 99.3 µM)	–
CC(C(O)c1ccc(Oc2ccc(Cl)cc2)cc1)n1ccnc1 (centres unmarked) [Beispiel 71]	–	–	–	–	–	bessere antimykotische Wirkung	8 (≈ 24.3 µM)	< 1	+++ (Wirkung = 60 % Ueberlebende am 6.Tag p.i.)	–	16 (≈ 48.7 µM)	2 (≈ 6.08 µM)	bessere Wirkung
CCCCC(C(O)c1ccc(Oc2ccc(Cl)cc2)cc1)n1ccnc1 (centres unmarked) [Beispiel 72]	–	–	–	–	–	bessere antimykotische Wirkung	< 1	< 1	–	8 (≈ 21.6 µM)	32 (≈ 86.3 µM)	2 (≈ 5.39 µM)	–
